Experimental findings from US10168342B2, “Lipid probes and uses thereof” (THE SCRIPPS RESEARCH INSTITUTE, priority 2015, dated 2019) are described below.

As usually defined, the IC50 is the concentration that inhibits the measured activity by half.

Assay [1] deals with T1, humanized rat FAAH (Rattus norvegicus, UniProt P97612, A377T/F194Y/I491V/L192F/S435N/V495M).
T1 sequence (P97612 30-579 L192F/F194Y/A377T/S435N/I491V/V495M limits assumed): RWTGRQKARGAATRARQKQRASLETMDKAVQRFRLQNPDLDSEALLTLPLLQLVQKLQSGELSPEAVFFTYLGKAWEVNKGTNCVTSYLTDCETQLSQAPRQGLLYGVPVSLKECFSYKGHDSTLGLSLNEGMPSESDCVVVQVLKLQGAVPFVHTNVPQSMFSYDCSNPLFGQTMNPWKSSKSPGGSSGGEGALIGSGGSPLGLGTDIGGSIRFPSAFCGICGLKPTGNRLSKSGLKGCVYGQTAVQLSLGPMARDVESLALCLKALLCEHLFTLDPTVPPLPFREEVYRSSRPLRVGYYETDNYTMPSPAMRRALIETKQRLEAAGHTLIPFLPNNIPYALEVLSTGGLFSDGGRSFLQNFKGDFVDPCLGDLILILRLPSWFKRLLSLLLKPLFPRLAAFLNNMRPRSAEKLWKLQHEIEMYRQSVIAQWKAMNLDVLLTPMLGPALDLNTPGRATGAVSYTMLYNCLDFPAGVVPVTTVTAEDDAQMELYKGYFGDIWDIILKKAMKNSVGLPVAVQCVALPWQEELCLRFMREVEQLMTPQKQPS
As to the kind of experiment: FAAH activity by AEA hydrolysis, purified enzyme. The format is biochemical. The note with it: for inhibition of FAAH activity (AEA hydrolysis): 50 or 100 μM; for IC50: read-out: IC50 against purified recombinant FAAH. The procedure:
FAAH activity was measured by AEA hydrolysis: The membrane fraction of Neuro2a lysates (200 μL, 2.0 mg/mL) was incubated with DMSO or the test compound (1.0-250 μM) at 37° C. After 15 min, AEA-d8 (25 μM) was added and the samples were incubated for an additional 30 min and then quenched by the addition of two volumes of CHCl3:MeOH (2:1) containing pentadecanoic acid (PDA) (1.0 nmol) as an internal standard. After centrifuging (2,000×g, 5 min, 4° C.) to separate the organic and aqueous layers, the lower organic layer was transferred to a clean vial and analyzed by LC/MS as previously described. (Long et al., 2009) Pure humanized rat FAAH (Mileni et al., 2008) (5.0 ng/μL) was assayed in the same manner. Product levels were quantified by determining peak areas in relation to PDA.

The test system of assay [2] is NAEs, NATs, AA and 2-AG in Neuro2a cells. In words: Targeted LC-MS (MRM) analysis of lipids from Neuro2a cells. In kind it is cell-based, mouse. The note with it: for NAEs when co-treated with PF-7845 (1 μM) / AA levels: 10 μM; for AA levels / 2-AG levels / cellular concentrations of NAEs and NATs: Neuro2a cells; for 2-AG levels / cellular concentrations of NAEs and NATs: 10 μM (PF-7845 1 μM); for cellular concentrations of NAEs and NATs: 6 h. The procedure: Discovery metabolite profiling was performed as described by Saghatelian et al., “Assignment of endogenous substrates to enzymes by global metabolite profiling,” Biochemistry 43:14332-14339 (2004) with several modifications. […] The media from the cells was removed and cells were washed with DPBS (2×5.0 mL) before adding freshly prepared media solutions containing vehicle or compound. After incubating for 6 h at 37° C. and subsequent removal of the media, the cells were harvested by scrapping in cold DPBS (3 mL) and pelleted by centrifugation in glass vials. The pellets were washed once with cold DPBS (3 mL) and then cold […] (2:1) (3 mL) was added. After vortexing, the vials were centrifuged (3,000×g, 10 min, 4° C.) and the bottom (organic) layer was transferred to a new glass vial and concentrated under a stream of N2. Samples were stored at −80° C. until the day of analysis when they were reconstituted in Mobile Phase A (100 μL, see below).
Neuro2a cells were treated and lipids extracted as described above. A mixture of internal standards [AEA-d4 (10 pmol), 2-AG-d5 (100 pmol), AA-d8 (100 pmol), PEA-d4 (100 pmol), PDA (1.0 nmol)] was added to the organic phase prior to extracting cells. NAEs, MAGs, AA and NATs were analyzed similarly to previously described methods (Saghatelian et al., 2004). The following MS parameters were used to measure the indicated metabolites by MRM (precursor ion, product ion, collision energy, polarity): NAE 20:4 (AEA) (348, 62, 12, positive), AEA-d4 (352, 66, 12, positive), NAE 16:0 (PEA) (300, 62, 12, positive), PEA-d4 (304, 62, 12, positive), NAE 18:0 (328, 62, 12, positive), NAE 18:1 (326, 62, 12, positive), NAE 18:2 (324, 62, 12, positive), 2-AG (379, 287, 8, positive), 2-AG-d5 (384, 287, 8, positive), AA (303, 259, 4, negative), AA-d8 (311, 267, 4, negative), NAT 20:4 (410, 80, 35, negative), NAT 22:1 (444, 80, 35, negative), NAT 24:1 (472, 80, 35, negative), NAT 24:0 (474, 80, 35, negative), NAT 26:0 (502, 80, 35, negative). The indicated lipids were quantified by measuring the area under the peak relative to an internal standard (AEA-d4 for AEA and NAE 18:2; PEA-d4 for PEA, NAE 18:1 and NAE 18:0; 2-AG-d5 for 2-AG; AA-d8 for AA and 20:4 NAT; PDA for all other NATs).

Regarding `CN1CCN(C(=O)c2c(-c3ccccc3)c3cc([N+](=O)[O-])ccc3n2C)CC1` [KML110, (1-Methyl-5-nitro-3-phenyl-1H-indol-2-yl)(4-methylpiperazin-1-yl)methanone], in assay [1], the “inhibition of FAAH activity (AEA hydrolysis)” value is on record as “do not substantially inhibit” and the IC50 was greater than 100 µM. Also, in assay [2], the “NAEs when co-treated with PF-7845 (1 μM)” value is “do not produce elevations”; the AA levels result is reported as “do not affect”; the 2-AG levels result is given as “modest increase”; the “cellular concentrations of NAEs and NATs” value was “elevated”.

In the case of `CN1CCN(C(=O)c2[nH]c3ccc([N+](=O)[O-])cc3c2-c2ccccc2)CC1` [MJN228, (4-Methylpiperazin-1-yl)(5-nitro-3-phenyl-1H-indol-2-yl)methanone], in assay [1], the “inhibition of FAAH activity (AEA hydrolysis)” value was “do not substantially inhibit” and the IC50 is greater than 100 µM. For the same compound, in assay [2], the “NAEs when co-treated with PF-7845 (1 μM)” value is “do not produce elevations”; the AA levels entry is reported as “do not affect”; the 2-AG levels result is “modest increase”; the “cellular concentrations of NAEs and NATs” value is “elevated”.
